Reference: patent US20140348861A1, “SYNTHETIC PEPTIDES AND RANDOM COPOLYMERS FOR THE TREATMENT OF AUTOIMMUNE DISORDERS” (NATIONAL INSTITUTE OF IMMUNOLOGY, priority 2011, published 2014)
Starred links: 1 amine or outer side, 2 acyl side, 3 side chain; linkers in the order of their positions; H or OH if unused. Non-standard residues stand in square brackets, D forms with d. Primed or numbered codes have the meaning given here. No end group written: not given here. Kβ = L-β-lysine, O=C(C[C@H](CCCN[*:3])N[*:1])[*:2]; Kβ(3) = beta-amino acid residue (Lys analogue); β3hY = N[C@H](CC(=O)O)Cc1ccc(O)cc1; β3hK = NCCCC[C@H](N)CC(=O)O; β3hA = C[C@H](N)CC(=O)O; Yβ = β-tyrosine

Test system: SJL/J mice exhibiting MBP (85-109) induced relapsing remitting form of EAE
Experiment: Therapeutic activity in MBP (85-109) induced relapsing remitting EAE, treatment from day 11
Assay type: in vivo
Details: SJL/J mice, RR EAE; for Therapeutic activity in comparison to GA (Therapeutic activity (Analogs) − Therapeutic activity GA) / Therapeutic activity in comparison to J5 (Therapeutic activity (Analogs) − Therapeutic activity (J5)): 0.1 mg daily for two weeks; for Therapeutic activity = % reduction in cumulative clinical disability score: synthetic peptides, 0.1 mg daily for two weeks from day 11 post-immunization
Procedure: SJL/J and C57BL6/J mice procured from Jackson's laboratory (Bar Harbor, Me.) were maintained under standard housing conditions in the central animal facility at NII as per institutional ethical committee guidelines. 8-10 week old female SJL/J mice were used throughout the study.
To induce RR EAE or chronic progressive EAE, SJL/J or C57BL6/J mice were immunized subcutaneously with 0.2 mg of MBP (85-109) or 0.1 mg MOG (35-55) emulsified in CFA and 200 ng of pertussis toxin was injected intraperitoneally on day 0 and day 2 so as to permeablize the blood brain barrier. All the animals in various experimental groups were scored daily for clinical disability on a scale of 0-6 where 0=no neurological symptoms, 1=limp tail, 2=weakness of hind limbs or ataxia, 3=incomplete paralysis of hind limbs, 4=complete paralysis of hind limbs, 5=complete paralysis of all four limbs, 6=dead. Diseased animals were provided easy access to food and water.
GA, J91, J92, S101, S102, S103 for two weeks and scored for clinical disability.

Substance	Therapeutic activity in comparison to GA (Therapeutic activity (Analogs) − Therapeutic activity GA)	Therapeutic activity in comparison to J5 (Therapeutic activity (Analogs) − Therapeutic activity (J5))	Therapeutic activity = % reduction in cumulative clinical disability score
VEβ^3Aβ^3Yβ^3Kβ^3 [Analog S38]	−4.813%	−8.77%	26.52%
KVEAYKAAAA (Peptide analog) [Analog J5a, reference compound]	−2.995%	−6.952%	28.34%
EKPKVEAYβKβAβAβAβAβPAβ [Analog S47]	20.96%	17.01%	52.3%
EKPKVEAYKβAβAβAβAβPAβ (EKPKVEAY[Kβ]XXXXPX; not fully specified (residues 10, 11, 12, 13, 15); printed as EKPKVEAYKβAβAβAβAβPAβ) [Analog S46]	21.93%	17.97%	53.26%
KVEAYβKβAβAβAβAβ [Analog S60]	10.05%	6.096%	41.39%
EKPKVβ^3Eβ^3Aβ^3Yβ^3Kβ^3Aβ^3Aβ^3Aβ^3Aβ^3Pβ^3Aβ^3 [Analog S11]	23.53%	19.57%	54.87%
Kβ^3Vβ^3Eβ^3AβYβ^3Kβ^3AβAβAβ^3Aβ^3 [Analog S82]	31.87%	27.91%	63.21%
EβKβPKβ^3Vβ^3Eβ^3AβYβ^3Kβ^3AβAβAβ^3Aβ^3PAβ [Analog S80]	30.7%	26.74%	62.03%
KVEAYKAβAβAβAβ [Analog S58]	11.02%	7.059%	42.35%
EKPKVEAYβ^3Kβ^3Aβ^3Aβ^3Aβ^3Aβ^3Pβ^3Aβ^3 [Analog S8]	23.85%	19.89%	55.19%
EKPβ^3Kβ^3Vβ^3Eβ^3Aβ^3Yβ^3Kβ^3Aβ^3Aβ^3Aβ^3Aβ^3Pβ^3Aβ^3 [Analog S13]	24.71%	20.75%	56.04%
KβVβEAYβKβAβAβAβAβ [Analog S65]	−5.989%	−9.947%	25.35%
KβVβEβAβYβKβ [Analog S71]	−14.9519%	−18.9091%	16.39%
EKPKβVβEβAβYβKβAβAβAβAβPAβ [Analog S51]	−4.92%	−8.877%	26.42%
KVEAβ^3Yβ^3Kβ^3 [Analog S30]	0.8556%	−3.102%	32.19%
KVβEβAβYβKβAβAβAβAβ [Analog S63]	−9.305%	−13.262%	22.03%
VEAYK (Peptide analog) [Analog J5c, reference compound]	−9.947%	−13.9037%	21.39%
Vβ^3Eβ^3Aβ^3Yβ^3Kβ^3 [Analog S39]	9.519%	5.561%	40.86%

Substance	Therapeutic activity in comparison to GA (Therapeutic activity (Analogs) − Therapeutic activity GA)	Therapeutic activity in comparison to J5 (Therapeutic activity (Analogs) − Therapeutic activity (J5))	Therapeutic activity = % reduction in cumulative clinical disability score
KVEAYKβ^3 (KVEAY[β3hK]) [Analog S28]	−7.38%	−11.3369%	23.96%
KVEβ^3Aβ^3Yβ^3Kβ^3Aβ^3Aβ^3Aβ^3Aβ^3 [Analog S24]	20.32%	16.36%	51.66%
KVEAβYβKβ [Analog S68]	−5.134%	−9.091%	26.2%
VEβAβYβKβ [Analog S76]	−7.914%	−11.8717%	23.42%
KVEAYKAAβ^3Aβ^3Aβ^3 (KVEAYKA[β3hA][β3hA][β3hA]) [Analog S19]	5.989%	2.032%	37.3262%
KβVβEAYβKβ [Analog S72]	−15.9358%	−19.8931%	15.4%
VEAYKβ^3 (VEAY[β3hK]) [Analog S35]	−6.952%	−10.9091%	24.39%
VEAYβ^3Kβ^3 (VEA[β3hY][β3hK]) [Analog S36]	−2.46%	−6.417%	28.88%
EKPKVEAYβ^3Kβ^3Aβ^3Aβ^3Aβ^3Aβ^3Pβ^3Aβ^3 [Analog S7]	22.46%	18.5%	53.8%
EKPKVEAYKAβAβAβAβPAβ [Analog S45]	23.53%	19.57%	54.87%
KVβ^3Eβ^3Aβ^3Yβ^3Kβ^3 [Analog S32]	11.23%	7.273%	42.57%
Kβ^3Vβ^3Eβ^3Aβ^3Yβ^3Kβ^3 [Analog S33]	14.44%	10.48%	45.7754%
VβEAYβKβ [Analog S78]	−11.9037%	−15.861%	19.43%
EβKβPKβVβEAYβKβAβAβAβAβPAβ [Analog S54]	−1.6E−06%	−3.957%	31.3369%
EKPKVEAYKAAAAβPAβ [Analog S42]	3.316%	−0.6417%	34.65%
VEAYβKβ (VEA[Yβ][Kβ(3)]) [Analog S74]	−9.947%	−13.9037%	21.39%
EKPKVEAYKAAAAPAβ^3 [Analog S1]	2.995%	−0.9626%	34.33%
EKPKVEAβ^3Yβ^3Kβ^3Aβ^3Aβ^3Aβ^3Aβ^3Pβ^3Aβ^3 [Analog S9]	23.74%	19.79%	55.08%
